# What was measured:
# [1] = set-up: method as in PMID 26401428; conditions: cited from earlier work
# [2] = Saturation concentration of CXB in oily phases, surfactants and co-surfactants/co-solvents; type: physicochemical; conditions: 30 °C
# Experimental: To assess the saturation concentration of CXB in different oily phases (Capryol 90, Captex 200 P, Captex 355 EP/NF, isopropyl myristate, Maisine CC, and Peceol), surfactants (Cremophor RH40, Labrasol, Tween 20, and Tween 80), and co-surfactants/co-solvents (Capmul PG-8 NF, PEG 400, Plurol oleique CC 497, and tetraglycol), an excess amount of CXB was added to the liquid excipients and placed in a tube rotator at 20 rpm and 30 °C for a day. After that, samples were centrifuged at 14,000 rpm for 20 min and the supernatant was appropriately diluted in methanol. The drug concentration was determined at 252 nm with a UV-VIS spectrophotometer Unicam UV 500A (Gemini, Apeldoorn, The Netherlands).
# [3] = pH 7; cited from earlier work
# [4] = set-up: method as in PMID 26146768; conditions: cited from earlier work
# [5] = set-up: method as in PMID 14603484; conditions: rats; cited from earlier work
compound,measurement,setting,value
"CCCCCCCCCCCCOS(=O)(=O)[O-].[Na+] [SDS, sodium dodecyl sulfate]",critical micelle concentration,[1],8 mM
"Cc1ccc(-c2cc(C(F)(F)F)nn2-c2ccc(S(N)(=O)=O)cc2)cc1 [CXB, Celecoxib]",solubility of CXB in surfactants,"[2]; Tween 20, Tween 80, cremophor RH40, Labrasol ALF",comparable CXB solubilities
same,solubility of CXB in co-surfactants/co-solvents,[2]; in PEG 400 and tetraglycol,highest solubility
same,solubility of CXB in oily phases,"[2]; in capryol 90, among six oily phases",highest amount
same,solubility,[3],3 to 7 µg/mL
C[C@]12C=CC(=O)C=C1CC[C@@H]1[C@@H]2[C@@H](O)C[C@@]2(C)[C@H]1CC[C@]2(O)C(=O)CO [prednisolone],effect of pH-dependent colon targeted film coating on in vitro release profile of solid SMEDDS,[4],not impacted
CC(=O)O[C@H]1C(=O)[C@@]2(C)[C@H]([C@H](OC(=O)c3ccccc3)[C@]3(O)C[C@H](OC(=O)[C@H](O)[C@@H](NC(=O)c4ccccc4)c4ccccc4)C(C)=C1C3(C)C)[C@]1(OC(C)=O)CO[C@@H]1C[C@@H]2O [paclitaxel],higher bioavailability by HPMC precipitation inhibition in SEDDS,[5],5 fold

# Source: article PMC8156508, “Ileo-Colon Targeting of the Poorly Water-Soluble Drug Celecoxib Using a pH-Dependent Coating in Combination with Self-Emulsifying Drug Delivery or Solid Dispersion Systems” (Pharmaceutics, 2021)
